Test results: the supplement of paper PMC10307832

Columns and labels:
Experiment in all cases: relative viability (nuclei count vs DMSO), 5 days (fraction); higher = more cells survive
Quizartinib + OSI-027 = compound: CC(C)(C)c1cc(NC(=O)Nc2ccc(-c3cn4c(n3)sc3cc(OCCN5CCOCC5)ccc34)cc2)no1 [Quizartinib] + COc1cccc2cc(-c3nc([C@H]4CC[C@H](C(=O)O)CC4)n4ncnc(N)c34)[nH]c12 [OSI-027] (partner 0.5 µM)
In short: (§1)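 Lung cancer cell lines were pin-tool dosed in 1536-well plates on the day after seeding, with either a lone drug or a fixed anchor-drug dose plus five library-drug doses (not always all listed) in √10 steps. Nuclei were counted on 4× images after 5 days. Relative viability is the ratio of treated-well to vehicle-well nuclei counts, with each value a median of duplicate plates.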

Quizartinib + Tozasertib = compound: CC(C)(C)c1cc(NC(=O)Nc2ccc(-c3cn4c(n3)sc3cc(OCCN5CCOCC5)ccc34)cc2)no1 [Quizartinib] + Cc1cc(Nc2cc(N3CCN(C)CC3)nc(Sc3ccc(NC(=O)C4CC4)cc3)n2)n[nH]1 [Tozasertib] (partner 0.1 µM)
In short: as §1

Quizartinib + Pemetrexed = compound: CC(C)(C)c1cc(NC(=O)Nc2ccc(-c3cn4c(n3)sc3cc(OCCN5CCOCC5)ccc34)cc2)no1 [Quizartinib] + Nc1nc2[nH]cc(CCc3ccc(C(=O)N[C@@H](CCC(=O)O)C(=O)O)cc3)c2c(=O)[nH]1 [Pemetrexed] (partner 0.2 µM)
In short: as §1

YM155 + Palbociclib = compound: COCC[n+]1c2c(n(Cc3cnccn3)c1C)C(=O)c1ccccc1C2=O [YM155] + CC(=O)c1c(C)c2cnc(Nc3ccc(N4CCNCC4)cn3)nc2n(C2CCCC2)c1=O [Palbociclib] (partner 0.5 µM)
In short: as §1

YM155 + OSI-027 = compound: COCC[n+]1c2c(n(Cc3cnccn3)c1C)C(=O)c1ccccc1C2=O [YM155] + COc1cccc2cc(-c3nc([C@H]4CC[C@H](C(=O)O)CC4)n4ncnc(N)c34)[nH]c12 [OSI-027] (partner 0.5 µM)
In short: as §1

YM155 + Olaparib = compound: COCC[n+]1c2c(n(Cc3cnccn3)c1C)C(=O)c1ccccc1C2=O [YM155] + O=C(c1cc(Cc2n[nH]c(=O)c3ccccc23)ccc1F)N1CCN(C(=O)C2CC2)CC1 [Olaparib] (partner 8 µM)
In short: as §1

With NCI-H1648 the relative viability (Quizartinib + OSI-027; first compound 0.01 µM) was 0.258, the relative viability (Quizartinib + OSI-027; first compound 0.03162 µM) was 0.253 and the relative viability (Quizartinib + OSI-027; first compound 0.1 µM) was 0.259. It also gave a relative viability (Quizartinib + Tozasertib; first compound 0.01 µM) of 0.38, a relative viability (Quizartinib + Tozasertib; first compound 0.03162 µM) of 0.341 and a relative viability (Quizartinib + Tozasertib; first compound 0.1 µM) of 0.585. It also gave a relative viability (Quizartinib + Pemetrexed; first compound 0.003162 µM) of 0.617, a relative viability (Quizartinib + Pemetrexed; first compound 0.03162 µM) of 0.552 and a relative viability (Quizartinib + Pemetrexed; first compound 0.1 µM) of 1.05. The relative viability (YM155 + Palbociclib; first compound 0.006325 µM) was 0.299, the relative viability (YM155 + Palbociclib; first compound 0.02 µM) was 0.306 and the relative viability (YM155 + Palbociclib; first compound 0.06325 µM) was 0.295. For the same cell line, the relative viability (YM155 + OSI-027; first compound 0.002 µM) was 0.283, the relative viability (YM155 + OSI-027; first compound 0.006325 µM) was 0.271 and the relative viability (YM155 + OSI-027; first compound 0.02 µM) was 0.259. It also gave a relative viability (YM155 + OSI-027; first compound 0.06325 µM) of 0.231, a relative viability (YM155 + Olaparib; first compound 0.006325 µM) of 1.06 and a relative viability (YM155 + Olaparib; first compound 0.02 µM) of 0.6. It also gave a relative viability (YM155 + Olaparib; first compound 0.06325 µM) of 0.762.
